What was measured:
Type in all cases: biochemical
JAK1 = JAK1 (Homo sapiens, UniProt P23458); assay: experiment of inhibiting kinase activity (Caliper mobility shift assay), JAK1; details: for inhibition at 0.1 µM: at 100 nM, read-out: inhibition rate JAK1; for IC50: kinase activity assay, Table 3
Method: (§1) The inhibition rates of tested compounds on JAK1, JAK2, JAK3, TYK2, CDK7, CDK9, EGFR (T790M) and LRRK2 kinases were measured. The test concentrations of the compounds were 10 nM and 100 nM, and the detection was performed by replicate wells. Alternatively, compounds were 3-fold serial diluted from 10 µM for 10 concentrations in replicate wells.
(§2) The inhibitory effects of the compounds on JAK1, JAK2, JAK3, CDK7 and CDK9 kinases were detected by the method of Caliper mobility shift assay. 250 nL of the compound at 100-fold final concentration was transferred to a destination plate 384-well-plate by using a liquid handler Echo 550. A kinase solution at 2.5-fold final concentration was prepared with 1×kinase buffer. 10 µL of the kinase solution with 2.5-fold final concentration was added to compound wells and positive control wells; and 10 µL of 1×kinase buffer was added to negative control wells. The mixture was centrifuged at 1000 rpm for 30 seconds and then incubated at room temperature for 10 minutes. A mixed solution of ATP and kinase substrate at 5/3-fold final concentration was prepared with 1×kinase buffer, and 15 µL of the mixed solution of ATP and substrate at 5/3-fold final concentration was added to start the reaction. The 384-well plate was centrifuged at 1000 rpm for 30 seconds, shaked and mixed evenly, then incubated at room temperature for a corresponding time. 30 µL of stop solution was added to stop the kinase reaction, the mixture was centrifuged at 1000 rpm for 30 seconds, and shaked and mixed evenly. The conversion rate was read by Caliper EZ Reader. The conversion inhibition rate%=(average positive control conversion rate%-sample conversion rate%)/(average positive control conversion rate%-average negative control conversion rate%). Where negative control wells represent the conversion readings of the background well of kinase buffer; and positive control wells represent the conversion readings of wells without compound inhibition. With the log value of concentration as the x axis and the percentage inhibition rate as the y axis, the dose-response curve was fitted by the log (inhibitor) vs. response-variable slope of the analyzing softwar GraphPad Prism 5, and the IC50 values of each compound on enzyme activity were obtained. Calculation formula is as follows: y=Bottom+(Top-Bottom)/(1+10^((LogIC50-x)×hillslope)), where x is logarithm of inhibitor concentration; and Y is % inhibition rate.

JAK2 = JAK2 (Homo sapiens, UniProt O60674); assay: experiment of inhibiting kinase activity (Caliper mobility shift assay), JAK2; details: for inhibition at 0.01 µM: at 10 nM; for inhibition at 0.01 µM / inhibition at 0.1 µM: read-out: inhibition rate JAK2; for inhibition at 0.1 µM: at 100 nM; for IC50: kinase activity assay, Table 3
Outline: (§3)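 Replicate wells; top concentration 10 µM, 3-fold steps, 10 points (or 10 nM/100 nM single doses). Enzyme preincubated 10 min RT with compound; ATP/substrate start; stop solution; Caliper conversion read. IC50 by Hill-slope curve fit.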

JAK3 = target: T1, JAK3 (Homo sapiens, UniProt P52333); assay: experiment of inhibiting kinase activity (Caliper mobility shift assay), JAK3; details: for IC50: kinase activity assay, Table 3; for inhibition at 0.1 µM: at 100 nM; for inhibition at 0.1 µM / inhibition at 0.01 µM: read-out: inhibition rate JAK3; for inhibition at 0.01 µM: at 10 nM
T1 sequence (P52333 1-1124): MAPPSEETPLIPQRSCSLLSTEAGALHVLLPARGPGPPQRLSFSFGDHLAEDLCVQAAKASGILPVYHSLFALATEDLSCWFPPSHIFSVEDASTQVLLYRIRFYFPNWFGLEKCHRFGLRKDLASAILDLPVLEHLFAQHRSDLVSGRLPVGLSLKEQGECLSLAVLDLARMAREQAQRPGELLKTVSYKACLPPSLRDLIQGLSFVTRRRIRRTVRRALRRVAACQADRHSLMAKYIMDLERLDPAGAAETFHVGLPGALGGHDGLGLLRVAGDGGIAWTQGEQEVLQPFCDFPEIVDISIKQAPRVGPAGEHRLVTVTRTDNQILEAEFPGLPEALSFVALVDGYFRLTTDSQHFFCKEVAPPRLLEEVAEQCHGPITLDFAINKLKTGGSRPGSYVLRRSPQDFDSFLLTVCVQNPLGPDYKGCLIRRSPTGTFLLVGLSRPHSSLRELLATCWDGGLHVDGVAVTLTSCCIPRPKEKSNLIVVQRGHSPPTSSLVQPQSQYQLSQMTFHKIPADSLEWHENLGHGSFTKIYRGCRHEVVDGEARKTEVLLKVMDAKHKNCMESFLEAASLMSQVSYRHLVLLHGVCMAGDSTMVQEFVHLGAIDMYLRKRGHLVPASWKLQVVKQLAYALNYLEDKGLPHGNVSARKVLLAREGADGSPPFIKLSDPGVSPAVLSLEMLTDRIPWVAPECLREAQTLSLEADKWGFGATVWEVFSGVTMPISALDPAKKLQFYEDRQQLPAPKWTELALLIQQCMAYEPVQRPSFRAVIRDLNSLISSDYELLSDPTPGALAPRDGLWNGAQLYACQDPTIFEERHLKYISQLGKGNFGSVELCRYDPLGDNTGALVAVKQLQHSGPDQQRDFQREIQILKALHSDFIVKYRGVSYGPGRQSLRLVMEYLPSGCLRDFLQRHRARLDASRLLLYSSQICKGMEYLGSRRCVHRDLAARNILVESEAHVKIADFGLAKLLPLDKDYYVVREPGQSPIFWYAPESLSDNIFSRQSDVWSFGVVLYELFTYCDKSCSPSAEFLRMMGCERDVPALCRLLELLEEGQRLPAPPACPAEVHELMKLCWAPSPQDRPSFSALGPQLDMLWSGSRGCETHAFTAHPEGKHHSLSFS
Outline: as §3

TYK2 = TYK2 (Homo sapiens, UniProt P29597); assay: experiment of inhibiting kinase activity, TYK2; details: read-out: inhibition rate TYK2; for inhibition at 0.01 µM: at 10 nM; for inhibition at 0.1 µM: at 100 nM
Method: as §1

CDK9 = CDK9 (Homo sapiens, UniProt P50750); assay: experiment of inhibiting kinase activity (Caliper mobility shift assay), CDK9; details: for inhibition at 0.1 µM: at 100 nM; for inhibition at 0.1 µM / inhibition at 0.01 µM: read-out: inhibition rate CDK9; for inhibition at 0.01 µM: at 10 nM
Method: as §1, §2

LRRK2 = LRRK2 (Homo sapiens, UniProt Q5S007); assay: experiment of inhibiting kinase activity, LRRK2; details: for inhibition at 0.1 µM: at 100 nM; for inhibition at 0.1 µM / inhibition at 0.01 µM: read-out: inhibition rate LRRK2; for IC50: kinase activity assay, Table 3; for inhibition at 0.01 µM: at 10 nM
Method: as §1

CDK7 = CDK7 (Homo sapiens, UniProt P50613); assay: experiment of inhibiting kinase activity (Caliper mobility shift assay), CDK7; details: for inhibition at 0.1 µM: at 100 nM, read-out: inhibition rate CDK7
Method: as §1, §2

Chain of JAK2 (O60674 whole entry): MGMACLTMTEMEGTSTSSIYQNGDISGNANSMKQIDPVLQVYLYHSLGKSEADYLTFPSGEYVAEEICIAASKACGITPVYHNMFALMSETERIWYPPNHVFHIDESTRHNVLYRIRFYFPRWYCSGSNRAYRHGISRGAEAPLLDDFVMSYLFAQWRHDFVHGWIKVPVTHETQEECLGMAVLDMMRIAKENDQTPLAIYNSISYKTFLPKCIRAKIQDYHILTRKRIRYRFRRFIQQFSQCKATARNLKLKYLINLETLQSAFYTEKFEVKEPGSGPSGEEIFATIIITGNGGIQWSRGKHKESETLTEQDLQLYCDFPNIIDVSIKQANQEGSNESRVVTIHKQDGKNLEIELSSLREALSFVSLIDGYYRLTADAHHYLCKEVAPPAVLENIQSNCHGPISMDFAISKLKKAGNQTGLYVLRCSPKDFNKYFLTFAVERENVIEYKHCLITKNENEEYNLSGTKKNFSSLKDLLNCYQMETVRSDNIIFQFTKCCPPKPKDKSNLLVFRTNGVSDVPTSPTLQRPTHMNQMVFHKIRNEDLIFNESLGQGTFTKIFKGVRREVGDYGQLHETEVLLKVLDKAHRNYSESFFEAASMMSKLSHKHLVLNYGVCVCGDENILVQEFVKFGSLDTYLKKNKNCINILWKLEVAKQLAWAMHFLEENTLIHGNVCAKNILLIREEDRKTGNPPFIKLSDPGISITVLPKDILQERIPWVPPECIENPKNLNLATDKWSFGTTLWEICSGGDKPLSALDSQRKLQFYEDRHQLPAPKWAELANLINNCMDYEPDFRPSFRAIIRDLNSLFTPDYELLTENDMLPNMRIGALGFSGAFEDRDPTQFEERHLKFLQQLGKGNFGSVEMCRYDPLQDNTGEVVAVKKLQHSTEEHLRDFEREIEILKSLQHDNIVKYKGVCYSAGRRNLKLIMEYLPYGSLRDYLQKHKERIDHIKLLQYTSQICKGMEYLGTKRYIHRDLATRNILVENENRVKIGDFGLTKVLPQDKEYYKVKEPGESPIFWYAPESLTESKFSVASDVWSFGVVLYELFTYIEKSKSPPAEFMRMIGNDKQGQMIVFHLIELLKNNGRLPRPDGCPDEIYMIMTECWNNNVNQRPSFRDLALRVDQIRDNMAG
Chain of LRRK2 (Q5S007 whole entry): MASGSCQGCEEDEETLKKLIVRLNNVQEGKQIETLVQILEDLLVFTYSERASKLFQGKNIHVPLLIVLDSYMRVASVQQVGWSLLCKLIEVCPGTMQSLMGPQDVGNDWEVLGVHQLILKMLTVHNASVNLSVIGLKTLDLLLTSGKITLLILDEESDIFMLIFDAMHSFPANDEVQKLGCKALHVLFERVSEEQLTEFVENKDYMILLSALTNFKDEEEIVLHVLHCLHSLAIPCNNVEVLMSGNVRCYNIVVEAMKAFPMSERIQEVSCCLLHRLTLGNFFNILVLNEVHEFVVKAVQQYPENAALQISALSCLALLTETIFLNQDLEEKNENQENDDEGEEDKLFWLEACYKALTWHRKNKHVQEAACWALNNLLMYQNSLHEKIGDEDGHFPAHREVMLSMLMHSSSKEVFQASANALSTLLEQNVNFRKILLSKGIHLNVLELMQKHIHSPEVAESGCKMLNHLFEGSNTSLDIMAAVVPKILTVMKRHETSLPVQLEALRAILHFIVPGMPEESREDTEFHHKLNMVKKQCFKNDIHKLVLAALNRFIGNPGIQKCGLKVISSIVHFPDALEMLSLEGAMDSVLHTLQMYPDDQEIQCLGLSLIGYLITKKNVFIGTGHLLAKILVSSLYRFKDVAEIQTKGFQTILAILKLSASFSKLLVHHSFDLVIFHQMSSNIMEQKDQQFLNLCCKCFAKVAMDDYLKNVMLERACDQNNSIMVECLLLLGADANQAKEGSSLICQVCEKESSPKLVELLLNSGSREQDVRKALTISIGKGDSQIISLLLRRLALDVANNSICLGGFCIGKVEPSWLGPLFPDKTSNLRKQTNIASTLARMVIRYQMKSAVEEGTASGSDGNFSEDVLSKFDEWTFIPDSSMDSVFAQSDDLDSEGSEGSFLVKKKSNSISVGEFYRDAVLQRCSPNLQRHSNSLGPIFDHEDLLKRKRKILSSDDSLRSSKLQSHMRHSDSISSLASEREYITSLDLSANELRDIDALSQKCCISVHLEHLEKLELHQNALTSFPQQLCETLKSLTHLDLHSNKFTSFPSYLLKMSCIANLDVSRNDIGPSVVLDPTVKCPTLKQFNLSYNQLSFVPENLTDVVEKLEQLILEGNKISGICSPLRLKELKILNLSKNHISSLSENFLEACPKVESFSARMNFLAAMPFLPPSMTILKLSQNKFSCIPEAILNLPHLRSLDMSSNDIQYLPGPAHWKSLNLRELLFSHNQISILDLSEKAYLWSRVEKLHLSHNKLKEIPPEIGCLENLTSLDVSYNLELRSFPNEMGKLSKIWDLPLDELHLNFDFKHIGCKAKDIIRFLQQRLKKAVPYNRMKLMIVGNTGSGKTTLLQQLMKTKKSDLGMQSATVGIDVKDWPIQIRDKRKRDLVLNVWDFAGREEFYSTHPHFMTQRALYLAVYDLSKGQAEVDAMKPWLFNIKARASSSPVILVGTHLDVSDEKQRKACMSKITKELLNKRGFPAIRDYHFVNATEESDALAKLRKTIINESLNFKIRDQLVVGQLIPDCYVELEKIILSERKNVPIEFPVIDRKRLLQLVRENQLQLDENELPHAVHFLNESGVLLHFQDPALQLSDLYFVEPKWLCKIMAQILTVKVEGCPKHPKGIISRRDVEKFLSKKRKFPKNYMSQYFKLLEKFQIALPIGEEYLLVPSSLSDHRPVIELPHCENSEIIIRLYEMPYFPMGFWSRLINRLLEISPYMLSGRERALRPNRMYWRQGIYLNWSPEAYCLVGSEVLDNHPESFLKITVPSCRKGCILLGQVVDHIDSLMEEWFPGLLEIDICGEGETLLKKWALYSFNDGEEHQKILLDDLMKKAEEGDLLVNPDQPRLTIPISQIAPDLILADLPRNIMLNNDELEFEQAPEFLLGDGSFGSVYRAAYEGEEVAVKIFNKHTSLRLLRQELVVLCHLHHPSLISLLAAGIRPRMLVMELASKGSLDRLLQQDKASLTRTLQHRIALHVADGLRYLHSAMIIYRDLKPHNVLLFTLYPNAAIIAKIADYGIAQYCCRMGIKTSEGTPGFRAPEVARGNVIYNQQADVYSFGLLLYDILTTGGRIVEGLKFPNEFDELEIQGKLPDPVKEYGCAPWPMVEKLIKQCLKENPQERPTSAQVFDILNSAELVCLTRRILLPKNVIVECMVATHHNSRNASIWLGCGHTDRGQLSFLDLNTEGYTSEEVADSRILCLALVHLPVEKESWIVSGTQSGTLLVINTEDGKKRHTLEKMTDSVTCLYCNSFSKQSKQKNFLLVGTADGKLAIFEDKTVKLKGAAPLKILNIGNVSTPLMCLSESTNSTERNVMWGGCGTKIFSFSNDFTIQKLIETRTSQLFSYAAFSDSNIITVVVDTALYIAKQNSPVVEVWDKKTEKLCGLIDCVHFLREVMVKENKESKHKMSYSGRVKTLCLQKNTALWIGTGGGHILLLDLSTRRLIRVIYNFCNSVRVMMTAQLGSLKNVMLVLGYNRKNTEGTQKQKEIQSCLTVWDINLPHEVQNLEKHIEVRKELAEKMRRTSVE
Chain of CDK9 (P50750 whole entry): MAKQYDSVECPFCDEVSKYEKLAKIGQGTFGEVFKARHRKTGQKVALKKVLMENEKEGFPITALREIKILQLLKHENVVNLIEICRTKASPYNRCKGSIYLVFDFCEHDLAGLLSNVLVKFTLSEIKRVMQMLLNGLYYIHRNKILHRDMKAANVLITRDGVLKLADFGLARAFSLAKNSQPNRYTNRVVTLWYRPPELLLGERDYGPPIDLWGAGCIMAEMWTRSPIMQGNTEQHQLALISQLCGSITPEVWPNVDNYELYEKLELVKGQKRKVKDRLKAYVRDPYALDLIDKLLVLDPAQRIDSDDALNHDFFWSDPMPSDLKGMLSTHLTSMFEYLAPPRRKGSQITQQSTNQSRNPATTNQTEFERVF
Chain of CDK9 (O60563 whole entry partner): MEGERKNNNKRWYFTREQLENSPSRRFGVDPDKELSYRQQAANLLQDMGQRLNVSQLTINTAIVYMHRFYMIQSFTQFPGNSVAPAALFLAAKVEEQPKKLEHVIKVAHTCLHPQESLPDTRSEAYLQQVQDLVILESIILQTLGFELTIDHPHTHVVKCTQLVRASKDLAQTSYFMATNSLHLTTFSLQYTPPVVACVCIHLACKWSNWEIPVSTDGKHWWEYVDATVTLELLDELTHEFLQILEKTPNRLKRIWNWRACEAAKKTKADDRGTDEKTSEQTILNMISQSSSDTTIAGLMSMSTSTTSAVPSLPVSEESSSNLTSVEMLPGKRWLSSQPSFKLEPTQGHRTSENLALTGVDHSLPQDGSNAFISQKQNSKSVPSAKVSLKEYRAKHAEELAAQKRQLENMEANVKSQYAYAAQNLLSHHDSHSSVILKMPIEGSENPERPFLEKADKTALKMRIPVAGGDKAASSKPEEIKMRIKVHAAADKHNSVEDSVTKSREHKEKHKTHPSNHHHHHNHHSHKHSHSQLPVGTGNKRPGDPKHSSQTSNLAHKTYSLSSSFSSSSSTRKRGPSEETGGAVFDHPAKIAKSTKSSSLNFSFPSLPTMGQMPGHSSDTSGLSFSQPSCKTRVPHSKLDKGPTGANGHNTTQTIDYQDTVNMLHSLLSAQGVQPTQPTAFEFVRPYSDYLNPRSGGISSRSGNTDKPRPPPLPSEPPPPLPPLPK

CN1CCOc2ccc(Nc3ncc(F)c(-c4ccc(C(=O)NCC#N)cc4)n3)cc2OCC1 [Example 15, N-(Cyanomethyl)-4-(5-fluoro-2-((4-methyl-3,4,5,6-tetrahydro-2H-benzo[b][1,4,7]dioxazolin-9-yl)amino)pyrimidin-4-yl)benzamide]
inhibition at 0.1 µM (JAK1): 40 to 79% | IC50 (JAK1): < 50 nM | inhibition at 0.01 µM (JAK2): 40 to 79% | inhibition at 0.1 µM (JAK2): > 80% | IC50 (JAK2): < 50 nM | IC50 (JAK3): < 50 nM | inhibition at 0.01 µM (TYK2): 25 to 39% | inhibition at 0.1 µM (TYK2): > 80% | inhibition at 0.1 µM (CDK9): 40 to 79% | inhibition at 0.1 µM (LRRK2): 40 to 79% | IC50 (LRRK2): 50 to 200 nM

CN1CCOCCOc2cc(Nc3nc(Nc4cccc(S(=O)(=O)NC(C)(C)C)c4)c4cc[nH]c4n3)ccc2OCC1 [Example 20, N-(tert-butyl)-3-((2-((7-methyl-2,3,6,7,8,9-hexahydro-5H-benzo[b][1,4,7]trioxa[10]azacyclododecan-13-yl)amino)-7H-pyrrolo[2,3-d]pyrimidin-4-yl)amino)benzenesulfonamide]
inhibition at 0.1 µM (JAK2): > 80% | inhibition at 0.1 µM (JAK3): 40 to 79% | inhibition at 0.1 µM (TYK2): 25 to 39% | inhibition at 0.1 µM (CDK7): 40 to 79% | inhibition at 0.1 µM (LRRK2): 40 to 79%

CN1CCOCCOc2cc(Nc3nc(-c4cn(C)c5ccccc45)c4cc[nH]c4n3)ccc2OCC1 [Example 23, 7-methyl-N-(4-(1-methyl-1H-indol-3-yl)-7H-pyrrolo[2,3-d]pyrimidin-2-yl)-2,3,6,7,8,9-hexahydro-5H-benzo[b][1,4,7]trioxa[10]azacyclododecan-13-amine]
inhibition at 0.1 µM (JAK2): > 80% | inhibition at 0.1 µM (JAK3): 40 to 79% | inhibition at 0.1 µM (TYK2): 25 to 39% | inhibition at 0.1 µM (CDK7): 40 to 79% | inhibition at 0.1 µM (LRRK2): 40 to 79%

CN1CCOc2ccc(Nc3ncc(F)c(-c4cnn(C(CC#N)C5CCCC5)c4)n3)cc2OCC1 (stereo not shown) [Example 25]
inhibition at 0.1 µM (JAK1): 40 to 79% | inhibition at 0.01 µM (JAK2): 40 to 79% | inhibition at 0.1 µM (JAK2): > 80% | IC50 (JAK2): < 50 nM | inhibition at 0.1 µM (JAK3): 40 to 79% | IC50 (JAK3): < 50 nM | inhibition at 0.01 µM (TYK2): 40 to 79% | inhibition at 0.1 µM (TYK2): > 80% | inhibition at 0.1 µM (CDK7): 40 to 79% | inhibition at 0.1 µM (LRRK2): 40 to 79% | IC50 (LRRK2): 50 to 200 nM

Cc1nc2c(F)cc(-c3nc(Nc4ccc5c(c4)OCCOCCN(C)CCO5)nc4[nH]ccc34)cc2n1C(C)C [Example 31, N-(4-(4-fluoro-1-isopropyl-2-methyl-1H-benzo[d]imidazol-6-yl)-7H-pyrrolo[2,3-d]pyrimidin-2-yl)-7-methyl-2,3,6,7,8,9-hexahydro-5H-benzo[b][1,4,7]trioxa[10] azacyclododecan-13-amine]
inhibition at 0.01 µM (JAK2): 40 to 79% | inhibition at 0.1 µM (JAK2): > 80% | inhibition at 0.01 µM (JAK3): 40 to 79% | inhibition at 0.1 µM (JAK3): > 80% | inhibition at 0.1 µM (TYK2): 40 to 79% | inhibition at 0.1 µM (CDK7): 40 to 79% | inhibition at 0.01 µM (CDK9): 25 to 39% | inhibition at 0.1 µM (CDK9): 40 to 79% | inhibition at 0.01 µM (LRRK2): 40 to 79% | inhibition at 0.1 µM (LRRK2): > 80%

CN1CCOCCOc2cc(Nc3nc(Nc4ccccc4P(C)(C)=O)c4cc[nH]c4n3)ccc2OCC1 [Example 32, dimethyl(2-((2-((7-methyl-2,3,6,7,8,9-hexahydro-5H-benzo[b][1,4,7]trioxa[10]azacyclododecan-13-yl)amino)-7H-pyrrolo[2,3-d]pyrimidin-4-yl)amino)phenyl)phosphine oxide]
inhibition at 0.01 µM (JAK2): 40 to 79% | inhibition at 0.1 µM (JAK2): > 80% | inhibition at 0.01 µM (JAK3): > 80% | inhibition at 0.1 µM (JAK3): > 80% | inhibition at 0.01 µM (TYK2): 25 to 39% | inhibition at 0.1 µM (TYK2): 40 to 79% | inhibition at 0.1 µM (CDK7): 40 to 79% | inhibition at 0.1 µM (CDK9): 25 to 39% | inhibition at 0.01 µM (LRRK2): > 80% | inhibition at 0.1 µM (LRRK2): > 80% | IC50 (LRRK2): < 50 nM

CC(C)S(=O)(=O)c1ccccc1Nc1nc(Nc2ccc3c(c2)OCCN(C)CCO3)nc2[nH]ccc12 [Example 35, N^4-(2-(isopropylsulfonyl)phenyl)-N^2-(4-methyl-3,4,5,6-tetrahydro-2H-benzo[b][1,4, 7]dioxazolin-9-yl)-7H-pyrrolo[2,3-d]pyrimidin-2,4-diamine]
inhibition at 0.1 µM (JAK1): 40 to 79% | IC50 (JAK1): 50 to 200 nM | inhibition at 0.01 µM (JAK2): 40 to 79% | inhibition at 0.1 µM (JAK2): > 80% | IC50 (JAK2): < 50 nM | inhibition at 0.01 µM (JAK3): 25 to 39% | inhibition at 0.1 µM (JAK3): > 80% | IC50 (JAK3): < 50 nM | inhibition at 0.1 µM (TYK2): 40 to 79% | inhibition at 0.1 µM (CDK7): 40 to 79% | IC50 (CDK7; kinase activity assay, Table 3): < 50 nM | inhibition at 0.01 µM (LRRK2): > 80% | inhibition at 0.1 µM (LRRK2): > 80% | IC50 (LRRK2): < 50 nM

CCS(=O)(=O)N1CC(CC#N)(n2cc(-c3nc(Nc4ccc5c(c4)OCCN(C)CCO5)ncc3F)cn2)C1 [Example 37, 2-(1-(ethylsulfonyl)-3-(4-(5-fluoro-2-((4-methyl-3,4,5,6-tetrahydro-2H-benzo[b] [1,4,7]dioxazolin-9-yl)amino)pyrimidin-4-yl)-1H-pyrazol-1-yl)azetidin-3-yl)acetonitrile]
inhibition at 0.1 µM (JAK1): 40 to 79% | inhibition at 0.01 µM (JAK2): 40 to 79% | inhibition at 0.1 µM (JAK2): > 80% | IC50 (JAK2): < 50 nM | inhibition at 0.01 µM (JAK3): 40 to 79% | inhibition at 0.1 µM (JAK3): > 80% | IC50 (JAK3): < 50 nM | inhibition at 0.01 µM (TYK2): 40 to 79% | inhibition at 0.1 µM (TYK2): > 80% | inhibition at 0.1 µM (CDK7): 25 to 39% | inhibition at 0.1 µM (LRRK2): 25 to 39%

CN1CCOc2ccc(Nc3nc(NCCP(C)(C)=O)c4cc[nH]c4n3)cc2OCC1 [Example 85, dimethyl(2-((2-((4-methyl-3,4,5,6-tetrahydro-2H-benzo[b][1,4,7]dioxazolin-9-yl)amino)-7H-pyrrolo[2,3-d]pyrimidin-4-yl)amino)ethyl)phosphine oxide]
inhibition at 0.1 µM (CDK9): > 80% | IC50 (LRRK2): < 50 nM

COc1ccc(F)cc1-c1nc(Nc2ccc3c(c2)OCCOCCN(C)CCO3)ncc1F [Example 115, N-(5-fluoro-4-(5-fluoro-2-methoxyphenyl)pyrimidin-2-yl)-7-methyl-2,3,6,7,8,9-hexahydro-5H-benzo[b][1,4,7]trioxa[10]azacyclododecan-13-amine]
inhibition at 0.01 µM (CDK9): 40 to 79% | IC50 (CDK9; kinase activity assay, Table 3): < 50 nM

Reference: patent EP4592286A1, “MACROCYCLIC NITROGEN-CONTAINING CROWN ETHER COMPOUND AND USE THEREOF AS PROTEIN KINASE INHIBITOR” (Artivila Biopharma, priority 2022, dated 2024)
